Source: patent US8426345B2, “Method of drug design” (Alchemia Limited, priority 2005, dated 2013)

Molecular target: T1, Human SST5 somatostatin receptor (Homo sapiens, UniProt P35346)
T1 construct: expressed in transfected cells; host or cells: HEK-293 EBNA cells (membranes)
Assay: Filter plate radio-ligand binding assay for SST5 receptor ([125I]SST-14 displacement)
Details: 3P library; for % SST5 radio-ligand binding displaced at conc 0.5: conc 0.5 μM; for % SST5 radio-ligand binding displaced at conc 10: conc 10 μM; for % SST5 radio-ligand binding displaced at conc 0.001: conc 0.001 μM; for % SST5 radio-ligand binding displaced at conc 0.10: conc 0.10 μM; for % SST5 radio-ligand binding displaced at conc 1.0: conc 1.0 μM; for % SST5 radio-ligand binding displaced at conc 0.25: conc 0.25 μM

T1 sequence (P35346 whole entry): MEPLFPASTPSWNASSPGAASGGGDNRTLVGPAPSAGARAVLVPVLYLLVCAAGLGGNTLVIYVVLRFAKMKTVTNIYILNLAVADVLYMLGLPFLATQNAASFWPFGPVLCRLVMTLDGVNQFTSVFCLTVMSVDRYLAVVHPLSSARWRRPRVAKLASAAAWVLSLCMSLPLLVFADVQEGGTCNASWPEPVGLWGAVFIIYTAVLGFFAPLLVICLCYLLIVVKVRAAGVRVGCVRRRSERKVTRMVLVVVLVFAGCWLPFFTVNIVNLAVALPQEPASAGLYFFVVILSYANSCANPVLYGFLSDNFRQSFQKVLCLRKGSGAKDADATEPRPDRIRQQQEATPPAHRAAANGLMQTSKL

| Structure (SMILES) | % SST5 radio-ligand binding displaced at conc 0.5 | % SST5 radio-ligand binding displaced at conc 10 | % SST5 radio-ligand binding displaced at conc 0.001 | % SST5 radio-ligand binding displaced at conc 0.10 | % SST5 radio-ligand binding displaced at conc 1.0 | % SST5 radio-ligand binding displaced at conc 0.25 |
| --- | --- | --- | --- | --- | --- | --- |
| COC1C(O)C(COCc2ccc3ccccc3c2)OC(OCc2ccc3ccccc3c2)C1NC(=O)CCCN (mixture of isomers) [Compound 122] | ++ (% SST5 radio-ligand binding displaced at conc (μM) >60%) | ++ (% SST5 radio-ligand binding displaced at conc (μM) >60%) |  |  |  |  |
| COC1C(O)C(COCc2ccccc2)OC(OCc2ccc3ccccc3c2)C1NC(=O)CCCN (mixture of isomers) [Compound 123] | − (% SST5 radio-ligand binding displaced at cone (μM) −<40%) | − (% SST5 radio-ligand binding displaced at cone (μM) −<40%) |  |  |  |  |
| COC1C(O)C(COCc2ccc(Cl)cc2)OC(OCc2ccc3ccccc3c2)C1NC(=O)CCCN (mixture of isomers) [Compound 124] | − (% SST5 radio-ligand binding displaced at cone (μM) −<40%) | + (% SST5 radio-ligand binding displaced at cone (μM) 60>+>40%) |  |  |  |  |
| COC1C(O)C(COCc2cccc(O)c2)OC(OCc2ccc3ccccc3c2)C1NC(=O)CCCN (mixture of isomers) [Compound 125] | − (% SST5 radio-ligand binding displaced at cone (μM) −<40%) | + (% SST5 radio-ligand binding displaced at cone (μM) 60>+>40%) |  |  |  |  |
| COCC1OC(OCc2ccc3ccccc3c2)C(NC(=O)CCCN)C(OCc2ccccc2)C1O (mixture of isomers) [Compound 126] | + (% SST5 radio-ligand binding displaced at cone (μM) 60>+>40%) | ++ (% SST5 radio-ligand binding displaced at conc (μM) >60%) | − (% SST5 radio-ligand binding displaced at cone (μM) −<40%) | − (% SST5 radio-ligand binding displaced at cone (μM) −<40%) | + (% SST5 radio-ligand binding displaced at cone (μM) 60>+>40%) |  |
| COCC1OC(OCc2ccc3ccccc3c2)C(NC(=O)CCCN)C(OCc2ccc(Cl)cc2)C1O (mixture of isomers) [Compound 127] | ++ (% SST5 radio-ligand binding displaced at conc (μM) >60%) | ++ (% SST5 radio-ligand binding displaced at conc (μM) >60%) | − (% SST5 radio-ligand binding displaced at cone (μM) −<40%) | − (% SST5 radio-ligand binding displaced at cone (μM) −<40%) | ++ (% SST5 radio-ligand binding displaced at conc (μM) >60%) |  |
| COCC1OC(OCc2ccc3ccccc3c2)C(NC(=O)CCCN)C(OCc2ccc(-c3ccccc3)cc2)C1O (mixture of isomers) [Compound 128] | ++ (% SST5 radio-ligand binding displaced at conc (μM) >60%) | ++ (% SST5 radio-ligand binding displaced at conc (μM) >60%) | − (% SST5 radio-ligand binding displaced at cone (μM) −<40%) | − (% SST5 radio-ligand binding displaced at cone (μM) −<40%) | + (% SST5 radio-ligand binding displaced at cone (μM) 60>+>40%) | − (% SST5 radio-ligand binding displaced at cone (μM) −<40%) |
| COCC1OC(OCc2ccc3ccccc3c2)C(NC(=O)CCCN)C(OCc2ccc3ccccc3c2)C1O (mixture of isomers) [Compound 129] |  | ++ (% SST5 radio-ligand binding displaced at conc (μM) >60%) | − (% SST5 radio-ligand binding displaced at cone (μM) −<40%) | + (% SST5 radio-ligand binding displaced at cone (μM) 60>+>40%) | ++ (% SST5 radio-ligand binding displaced at conc (μM) >60%) | − (% SST5 radio-ligand binding displaced at cone (μM) −<40%) |
| COCC1OC(OCc2ccc3ccccc3c2)C(NC(=O)CCCN)C(OCc2cccc(O)c2)C1O (mixture of isomers) [Compound 130] |  | ++ (% SST5 radio-ligand binding displaced at conc (μM) >60%) |  |  |  |  |
